{"source": "patent US7815905B2", "about": "“Methods of increasing insulin sensitivity or decreasing insulin secretion by administering corticotropin releasing factor receptor-2 inhibitors” (Research Development Foundation, priority 2006, dated 2010)", "key": {"[1]": {"tested_on": "MIN6 cells", "test": "Ucn 3 secretion from MIN6 cells (Ucn 3 RIA)", "format": "cell-based, mouse", "conditions": "for Ucn 3 secretion in the presence of 2.8 mM glucose / Ucn 3 release in the presence of 10 mM glucose: 2 h at 37° C.", "source_text": "FIG. 8a-e: Elevation of pancreatic Ucn 3 expression in diabetic rodent models and stimulation of Ucn 3 release from β cells by glucose. (a) Representative agarose gel electrophoresis showing Ucn 3 and S-16 (control) PCR products. (b) Summary of Ucn 3 expression in ob/ob obese mice and the wildtype (WT) littermates. *: p<0.05 vs WT. (c) Ucn 3 mRNA levels in the pancreas of high fat fed rats (HF) and chow fed controls (Ctrl). *: p<0.05 vs Ctrl. (d) Ucn 3 secretion from MIN6 cells in response to various glucose concentrations. (e) Ucn 3 release from MIN6 cells, in response to glucose and/or insulin secretagogues.\nUcn 3 secretion from P cells was studied using a mouse clonal P cell line, MIN6, as a model. For these studies MIN6 cells (Miyazaki et al., 1990) were cultured in DMEM supplemented with 10% fetal bovine serum (FBS), and 114 μm β-mercaptoethanol. To assess Ucn 3 secretion, the cells were seeded in 6-well plates and allowed to recover for 48 hrs. The cells were then washed twice with HEPES-balanced Krebs-Ringer bicarbonate buffer (HKRB) containing 5 mM glucose and 0.2% BSA and were incubated in HKRB with various testing reagents for 2 h at 37° C. The incubation buffer was collected and vacuum-dried for Ucn 3 RIA. Exendin-4 and diazoxide and carbachol were purchased from Phoenix Pharmaceuticals (Belmont, Calif.), and Sigma (St. Louis, Mo.), respectively. […] The effect of glucose on Ucn 3 secretion plateaued at 16.8 mM."}, "[2]": {"tested_on": "insulin signaling in C2C12 myotubes", "test": "Phosphorylation studies of insulin signaling in C2C12 myotubes", "format": "cell-based", "conditions": "pretreatment with the PKA inhibitor", "procedure": "FIG. 3a-l: Urocortin 2 effects on muscle glucose uptake are mediated by inhibition of insulin signaling. (a-f). Ucn 2 inhibits the insulin-induced Akt and ERK1/2 phosphorylation but not the insulin receptor phosphorylation. Differentiated C2C12 myotubes were pre-incubated with or without Ucn 2 peptide (0.1, 1 or 10 nM) for 1 hour prior to insulin treatment (10 nM, 5 min). Cell lystates were resolved using 4-12% gradient polyacrylamide gels. Gels were electrophorectically transferred to membranes and probed with antibodies specific for the phospho proteins pAkt (Ser 473), pERK1/2 or pIR (Tyr1146). Stimulation of Akt, ERK or insulin receptor (IR) activation was calculated by fold activation of the phosphorylated form normalized to total and compared with the untreated controls (a, d and f, graphs). […] (g-j) Ucn 2 treatment increases the phosphorylation of serine residue 307 and not the tyrosin phosphorylation of IRS-1. Myotube cells, treated with or without PKA inhibitor (H-89), were incubated with insulin and different concentrations of Ucn 2. IRS-1 immunoprecipitated proteins were electrophoresed as before and the immunoblots were probed for phosphorylated tyrosin (g), phosphorylated serine 307 IRS-1 (i) and total IRS-1 (g, i). […] (k) The effect of Ucn 2 on [^3H]2-deoxy-D-glucose uptake in differentiated C2C12 myotubes. Cells were incubated for 2 hours in low glucose, serum free medium and treated with Ucn 2 (0.1, 1 or 10 nM) or without (control) for 30 min prior to insulin administration (10 nM). Glucose uptake was measured 5 min following exposure to [^3H]2-deoxy-D-glucose. Non-specific uptake was measured by incubating muscle tissue with cytochalasin B, which binds to the glucose uptake transporter (GLUT) and inhibits glucose transport into the cell. Specific uptake was calculated by subtracting non specific from total glucose. (l) Schematic representation of the putative cellular mechanisms mediating the effect of Ucn 2 and CRFR2 on the insulin signaling and glucose uptake in skeletal muscle cells. * indicates p<0.05 vs. no treatment. # indicates p<0.05 vs. insulin treatment (b, d, f) or p<0.05 vs. insulin treatment and Ucn 2 (i).\nDifferentiated C2C12 myotubes were pre-incubated with or without Ucn 2 peptide (0.1, 1 or 10 nM) for 1 hour prior to insulin treatment (10 nM, 5 min). Cells were harvested immediately in 100 μl of sample treatment buffer [STB, 50 mM Tris (pH 6.8), 100 mM dithiothreitol, 2% (wt/vol) sodium dodecyl sulfate, 0.1% (wt/vol) bromphenol blue, and 10% (wt/vol) glycerol]. The samples were boiled for 5 min, proteins were electrophoresed on 4-12% sodium dodecyl sulfate-polyacrylamide gradient gel (Invitrogen Life Technologies), subsequently transferred onto nitrocellulose membranes, and probed with antibodies specific for phosphorylated Akt (Ser 473, Cell Signaling Technology, Inc., Beverly, Mass.), phosphorylated ERK1/2-p42, 44 (Santa Cruz Biotechnology, Inc., Santa Cruz, Calif.), phosphorylated insulin receptor (Tyr 1146, Cell Signaling Technology, Inc.), or phosphorylated IRS1 (Ser 307, Upstate Cell Signaling Solutions, Lake placid, NY). The membranes were washed with phosphate buffer saline containing 0.05% (vol/vol) Tween 20 and incubated with horseradish peroxidase-conjugated anti mouse or rabbit IgG raised in sheep (Amersham Biotech Pharmacia). Immunoreactive proteins were visualized using Super Signal West Pico Chemiluminescent substrate (Pierce, Rockford, Ill.). The relative protein levels were determined using densitometry (Image quant 1.2) by probing the membranes with antibodies directed against total proteins."}, "[3]": {"tested_on": "C57/B6 mice fed with high fat diet", "test": "Ucn 3 treatment of high fat diet fed mice", "format": "in vivo, mouse", "conditions": "high fat diet 16 weeks; 30 μg/kg i.p. for 6 days; vs vehicle", "procedure": "FIG. 6: The in vivo effect of Ucn 3 on insulin levels and blood glucose in a mouse model of type 2 diabetes. Wild-type mice were fed a high fat diet for 16 weeks to induce hyperglycemia. The mice were then injected for six days with vehicle alone or vehicle plus 30 μg/Kg of Ucn 3. Following treatment serum glucose (left panel) and serum insulin levels (right panel were determined.\nTo directly assess the in vivo activity of Ucn 3 in this model system C57/B6 mice were fed with high fat diet (45% Kcal) for 16 weeks. The mice were then injected i.p. with either vehicle or mouse Ucn 3 (30 μg/kg) for 6 days. […] These studies confirm the role of Ucn 3 in mediating increased insulin response to high blood sugar."}, "[4]": {"tested_on": "isolated rat islets", "test": "Insulin secretion from isolated rat islets", "format": "cell-based", "conditions": "10 nM in the presence of 8.4 mM glucose", "procedure": "FIG. 4a-b: The effect of CRFR2 antagonist on insulin secretion in isolated rat islets. (a) The effect of astressin2B (Ast2-B) on insulin secretion in response to glucose in isolated rat islets. […] The asterisk indicates a statistically significant difference between results from the control versus Ast2-B. (b) Isolated rat isles were pre-treated with anti-Ucn 3 IgG or control IgG followed by addition of indicated concentration of glucose. Y-axis indicates insulin secretion from the treated islets. The double asterisks indicate a statistically significant difference between the indicated treatments. […]\nTo assess the effect of CRFR2 antagonism on islet cell function secretion of insulin from isolated rat islets was studied. […] Thus, activation of CRFR2 by endogenous ligands is involved in insulin secretion induced by high levels of glucose.\nIn order to determine the role of Ucn 3 in glucose induced insulin secretion, isolated rat islets were pretreated with an anti-Ucn 3 IgG prior to glucose treatment."}}, "note": "“Also recorded” adds a separate entry of the source. Ends that are not written are not given here."}
{"molecule": "CC1=NS(=O)(=O)c2cc(Cl)ccc2N1", "note": "[diazoxide]", "values": [{"measurement": "glucose-induced Ucn 3 secretion", "setting": "[1]; pretreatment, 100 μM", "result": "effectively blocked"}]}
{"molecule": "C[N+](C)(C)CCOC(N)=O", "note": "[carbachol]", "values": [{"measurement": "Ucn 3 secretion in the presence of 2.8 mM glucose", "setting": "[1]", "result": "minimal or moderate"}, {"measurement": "Ucn 3 release in the presence of 10 mM glucose", "setting": "[1]", "result": "significantly stimulated"}]}
{"molecule": "O=S(=O)(NCCNC/C=C/c1ccc(Br)cc1)c1cccc2cnccc12", "note": "[H-89]", "values": [{"measurement": "phosphorylation of IRS-1 on S307 by Ucn 2", "setting": "[2]", "result": "completely blocked"}]}
{"molecule": "Ucn 3: Urocortin 3, CRF family member acting as CRFR2 agonist; mouse Ucn 3 (SEQ ID NO:3) (FTLSLDVPTNIMNILFNIDKAKNLRAKAAANAQLMAQI; ends and bridges not checked; listed as Mus musculus)", "values": [{"measurement": "glucose levels", "setting": "[3]", "result": "significantly lower glucose levels"}, {"measurement": "insulin levels", "setting": "[3]", "result": "higher insulin levels compared to the control, though the difference was not statistically significant"}]}
{"molecule": "Exendin-4: a long acting GLP-1 analogue", "values": [{"measurement": "Ucn 3 secretion in the presence of 2.8 mM glucose", "setting": "[1]", "result": "minimal or moderate"}, {"measurement": "Ucn 3 release in the presence of 10 mM glucose", "setting": "[1]", "result": "significantly stimulated"}, {"measurement": "insulin release from isolated islets", "setting": "[4]", "result": "significantly stimulated; also recorded: stimulated insulin release"}]}
